This is an account of results in US20080275076A1, “Pharmaceutical Compositions Comprising Sirolimus and/or an Analogue Thereof” (priority 2005, published 2008).

The conditions of data set [1]: cited from earlier work.
Data set [2] is described as follows: Solubility of sirolimus in various vehicles at 70° C. (visual inspection). It is filed as physicochemical. The procedure: In the following table is given the solubility of sirolimus in various vehicles (please note that the solubility is determined by visual inspection): […]

SMILES strings stand for the structures. Like-named read-outs stand apart in the source and are kept apart here.

As to `CO[C@H]1C[C@@H]2CC[C@@H](C)[C@@](O)(O2)C(=O)C(=O)N2CCCC[C@H]2C(=O)O[C@H]([C@H](C)C[C@@H]2CC[C@@H](O)[C@H](OC)C2)CC(=O)[C@H](C)/C=C(\C)[C@@H](O)[C@@H](OC)C(=O)[C@H](C)C[C@H](C)/C=C/C=C/C=C/1C` [Sirolimus], the “mean time-to-peak concentration (tmax)” value in data set [1] (multiple oral doses in renal transplant recipients) was “approximately 2 hours”; in data set [1] (oral, single dose in healthy subjects) it was “approximately 1 hour”. The “% Sirolimus dissolved 70° C.” value stood at 2.5% in data set [2] (vehicle Gelucire 44/14); 2.2% in data set [2] (vehicle Monomuls 90 35); 3.9% in data set [2] (vehicle Monomuls 90L12); 2.5% in data set [2] (vehicle Monomuls 90 L12/Rylo MD50 (10:90)); 1.5% in data set [2] (vehicle PEG 6000); 2.4% in data set [2] (vehicle PEG 6000/Poloxamer 188 (70:30)). For the same molecule, the “% Sirolimus dissolved 70° C.” value in data set [2] (vehicle Poloxamer 188) is listed as 1.0%; in data set [2] (vehicle Rylo MD50), 1.5%.
